Laboratory results taken from patent US8084467B2, “Pyrazole derivatives as cannabinoid receptor antagonists” (University of Connecticut, priority 2004, dated 2011).
Several values for one entry are separate records, joined by “and”; a condition that tells them apart may be missing. Equal values may be shown once. Read-outs that look alike come from different tables or passages of the source.

Experiments:
CB2 receptor = biological target: T1, CB2 receptor (Mus musculus, UniProt P47936); experiment: CB2 receptor binding, mouse spleen membranes, same manner as the CB1 binding assay; details: for Ki: [3H] CP-55,940; for selectivity CB2: ratio of CB1 Ki to CB2 Ki
T1 construct: membranes were prepared from frozen mouse spleen; from tissue; host or cells: mouse spleen
Method: Some of the inventive analogs were tested for CB2 receptor binding affinity and for CB1 receptor affinity (to determine selectivity). […] The lower the Ki value the higher the binding affinity.
(§1) The treated membranes were subsequently used in the binding assay described below. Approximately 30 μg of membranes were incubated in silanized 96-well microtiter plate with TME containing 0.1% essentially fatty acid-free bovine serum albumin (BSA), 0.8 nM [^3H] […] Radioactivity was detected using MicroScint 20 scintillation cocktail added directly to the dried filterplates, and the filterplates were counted using a Packard Instruments Top-Count. […] Data collected from three independent experiments performed with duplicate determinations was normalized between 100% and 0% specific binding for [^3H] […] The normalized data was analyzed using a 4-parameter nonlinear logistic equation to yield IC50 values.
Silanized centrifuge tubes were used throughout to minimize receptor loss due to adsorption. The CB2 binding assay was conducted in the same manner as for the CB1 binding assay. The binding affinities (Ki) were also expressed in nanomoles (nM).

CB1 cannabinoid receptor = biological target: T2, CB1 cannabinoid receptor (Rattus norvegicus, UniProt P20272); experiment: CB1 receptor binding, rat forebrain membranes, [3H] CP-55,940 displacement; details: for Ki: 0.8 nM [3H] CP-55,940; for selectivity CB1: ratio of CB2 Ki to CB1 Ki
T2 construct: membranes were prepared from rat forebrain membranes; from tissue; host or cells: rat forebrain
Method: Some of the inventive analogs were tested for CB2 receptor binding affinity and for CB1 receptor affinity (to determine selectivity). […] The lower the Ki value the higher the binding affinity. […]
Membranes, previously frozen at −80° C., were thawed on ice. To the stirred suspension was added three volumes of TME (25 mM Tris-HCl buffer, 5 mM MgCl2 and 1 mM EDTA) at a pH 7.4. The suspension was incubated at 4° C. for 30 min. At the end of the incubation, the membranes were pelleted and washed three times with TME.
as §1

[1] = affinities Ki CB2, mouse spleen membranes
[2] = rat forebrain membranes, read-out: affinities Ki CB1
[3] = affinities Ki CB1, rat forebrain membranes
[4] = mouse spleen membranes, read-out: affinities Ki CB2

T1 sequence (P47936 whole entry): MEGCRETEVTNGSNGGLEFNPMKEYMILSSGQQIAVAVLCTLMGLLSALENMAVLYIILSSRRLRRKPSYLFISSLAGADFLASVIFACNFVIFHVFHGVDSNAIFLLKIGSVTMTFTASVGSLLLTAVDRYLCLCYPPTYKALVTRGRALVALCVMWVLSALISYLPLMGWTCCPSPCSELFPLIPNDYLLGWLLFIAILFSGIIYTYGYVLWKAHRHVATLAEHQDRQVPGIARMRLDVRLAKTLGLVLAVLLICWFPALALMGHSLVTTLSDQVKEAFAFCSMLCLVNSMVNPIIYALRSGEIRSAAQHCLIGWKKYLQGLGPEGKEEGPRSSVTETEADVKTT
T2 sequence (P20272 whole entry): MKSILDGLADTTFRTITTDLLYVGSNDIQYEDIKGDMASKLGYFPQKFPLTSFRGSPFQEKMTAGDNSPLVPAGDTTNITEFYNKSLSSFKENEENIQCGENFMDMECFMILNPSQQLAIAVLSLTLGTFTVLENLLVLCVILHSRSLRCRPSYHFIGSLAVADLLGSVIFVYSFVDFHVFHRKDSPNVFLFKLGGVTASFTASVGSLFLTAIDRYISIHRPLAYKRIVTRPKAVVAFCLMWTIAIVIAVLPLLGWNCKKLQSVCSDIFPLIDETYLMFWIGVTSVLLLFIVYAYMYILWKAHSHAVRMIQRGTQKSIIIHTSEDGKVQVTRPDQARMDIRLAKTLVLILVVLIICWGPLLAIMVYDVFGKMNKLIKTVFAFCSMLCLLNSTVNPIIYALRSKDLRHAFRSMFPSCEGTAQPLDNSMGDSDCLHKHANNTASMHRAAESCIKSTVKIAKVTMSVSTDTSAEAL

| SMILES | Ki (CB2 receptor; [1]) | Ki (CB1 cannabinoid receptor; [2]) [nM] | selectivity CB1 (CB1 cannabinoid receptor) | selectivity CB2 (CB2 receptor) | Ki (CB1 cannabinoid receptor; [3]) | Ki (CB2 receptor; [4]) [nM] |
| --- | --- | --- | --- | --- | --- | --- |
| COCOCc1c(C(=O)N2CCCCC2)nn(-c2ccc(Cl)cc2Cl)c1-c1ccc(Br)cc1 [Compound 1-14] | 3100 nM | 395 | 7.8 |  |  |  |
| Cc1c(C(=O)NCC2CCC3CC2C3(C)C)nn(CCCCCCl)c1-c1ccccc1 (centres unmarked) [Compound 4-8] | 0.615 nM and 0.6 nM |  |  | 2 | 1.22 nM and 1.2 nM |  |
| O=C(NN1CCCCC1)c1nn(-c2ccc(Cl)cc2Cl)c(-c2ccc(-c3cccnc3)cc2)c1CO [Compound 3-21] |  | 76 |  |  |  | 207 |
| Cc1c(C(=O)NC2CCCCC2)nn(-c2ccc(Cl)cc2Cl)c1-c1ccc(-c2nnn(C)n2)cc1 [Compound 2-9] |  | 20 | 19 |  |  | 381 |
| CN(C(=O)c1nn(-c2ccc(Cl)cc2Cl)c(-c2ccc(-c3nnn(C)n3)cc2)c1CO)C1CCCCC1 [Compound 2-18] |  | 210 | 3.0 |  |  | 641 |
| CN(C(=O)c1nn(-c2ccc(Cl)cc2Cl)c(-c2ccc(Br)cc2)c1CO)C1CCCCC1 [Compound 3-1] |  | 29 | 62.1 |  |  | 1800 |
| COCc1c(C(=O)NC2CCCCC2)nn(-c2ccc(Cl)cc2Cl)c1-c1ccc(-c2cccnc2)cc1 [Compound 1-18] |  | 62 | 10.4 |  |  | 646 |
| Cc1c(NC(=O)OC2CCCCC2)nn(-c2ccc(Cl)cc2Cl)c1-c1ccc(Br)cc1 [Compound 3-9] |  | 69 | 6.5 |  |  | 449 |
| O=C(NN1CCCCC1)c1nn(-c2ccc(-c3cccnc3)cc2Cl)c(-c2ccc(-c3cccnc3)cc2)c1CO [Compound 3-19] |  | 146 | 13.2 |  |  | 1920 |
| O=C(NN1CCCCC1)c1nn(-c2ccc(Cl)cc2Cl)c(-c2ccc(-c3nnn[nH]3)cc2)c1CO [Compound 2-4] |  | 1840 | 7.4 |  |  | 13600 |
| Cc1c(C(=O)NN2CCCCC2)nn(-c2ccc(Cl)cc2Cl)c1-c1ccc(-c2nnn[nH]2)cc1 [Compound 2-1] |  | 455 | 1.5 |  |  | 702 |
| CCOCc1c(C(=O)NN2CCCCC2)nn(-c2ccc(Cl)cc2Cl)c1-c1ccc(Br)cc1 [Compound 1-12] |  | 46 | 11 |  |  | 490 |
| Cc1c(C(=O)NC2CC3CCC2(C)C3(C)C)nn(CCCCCCl)c1-c1ccccc1 (centres unmarked) [Compound 4-1] | 2.51 nM and 2.5 nM |  |  | 2.4 | 5.9 nM and 6 nM |  |
| CN(C(=O)c1nn(-c2ccc(Cl)cc2Cl)c(-c2ccc(-c3cccnc3)cc2)c1CO)C1CCCCC1 [Compound 3-4] |  | 227 | 3.3 |  |  | 759 |
| O=C(NC12CC3CC(CC(C3)C1)C2)c1cc(-c2ccccc2)n(CCCCCCl)n1 [Compound 4-6] | 4.79 nM and 4.8 nM |  |  | 2.5 | 12.2 nM and 12 nM |  |
| Cc1c(NC(=O)N(C)C2CCCCC2)nn(-c2ccc(Cl)cc2Cl)c1-c1ccc(Br)cc1 [Compound 3-11] |  | 29 | 31.6 |  |  | 917 |
| Cc1c(C(=O)NN2CCCCC2)nn(-c2ccc(Cl)cc2Cl)c1-c1ccc(-c2ccccc2Cl)cc1 [Compound 1-3] |  | 85.1 | 16 |  |  | 1370 |
| O=C(NC1CCCCC1)c1nn(-c2ccc(Cl)cc2Cl)c(-c2ccc(-c3nnn[nH]3)cc2)c1CO [Compound 2-10] |  | 192 | 2.4 |  |  | 463 |
| Cc1c(C(=O)N(C)C2CCCCC2)nn(-c2ccc(Cl)cc2Cl)c1-c1ccc(-c2nnnn2C)cc1 [Compound 2-14] |  | 1270 |  | 1.4 |  | 941 |

| SMILES | Ki (CB2 receptor; [1]) | Ki (CB1 cannabinoid receptor; [2]) [nM] | selectivity CB1 (CB1 cannabinoid receptor) | selectivity CB2 (CB2 receptor) | Ki (CB1 cannabinoid receptor; [3]) | Ki (CB2 receptor; [4]) [nM] |
| --- | --- | --- | --- | --- | --- | --- |
| CN(C(=O)c1nn(-c2ccc(Cl)cc2Cl)c(-c2ccc(-c3nnnn3C)cc2)c1CO)C1CCCCC1 [Compound 2-17] |  | 1080 | 1.3 |  |  | 1410 |
| O=C(NC1CCCCC1)c1nn(-c2ccc(Cl)cc2Cl)c(-c2ccc(Br)cc2)c1CBr [Compound 3-17] |  | 46 | 75.5 |  |  | 3480 |
| Cn1nnc(-c2ccc(-c3c(CO)c(C(=O)NN4CCCCC4)nn3-c3ccc(Cl)cc3Cl)cc2)n1 [Compound 2-6] |  | 18 | 120.5 |  |  | 2170 |
| Cc1c(C(=O)NN2CCCCC2)nn(-c2ccc(Cl)cc2Cl)c1-c1ccc(-c2cccc(Cl)c2)cc1 [Compound 1-1] |  | 1.5 | 491 |  |  | 741 |
| COCc1c(C(=O)NC2CCCCC2)nn(-c2ccc(Cl)cc2Cl)c1-c1ccc(-c2ccccn2)cc1 [Compound 1-20] |  | 51 | 5.4 |  |  | 277 |
| Cc1c(C(=O)N(C)C2CCCCC2)nn(-c2ccc(Cl)cc2Cl)c1-c1ccc(-c2ccncc2)cc1 [Compound 3-6] |  | 189 | 17.4 |  |  | 3290 |
| Cc1c(C(=O)N(C)C2CCCCC2)nn(-c2ccc(Cl)cc2Cl)c1-c1ccc(C#N)cc1 [Compound 3-15] |  | 50 | 216.5 |  |  | 10800 |
| O=C(NN1CCCCC1)c1nn(-c2ccc(Cl)cc2Cl)c(-c2ccc(-c3cccnc3)cc2)c1CF [Compound 1-6] |  | 15.1 | 128 |  |  | 1930 |
| CNCc1c(C(=O)NC2CCCCC2)nn(-c2ccc(Cl)cc2Cl)c1-c1ccc(Br)cc1 [Compound 1-15] |  | 172 | 2.3 |  |  | 397 |
| Cc1c(C(=O)NC23CC4CC(CC(C4)C2)C3)nn(CCCCCCl)c1-c1ccccc1 [Compound 4-2] | 0.704 nM and 0.8 nM |  |  | 1.8 | 1.42 nM and 1.4 nM |  |
| Cc1c(C(=O)NN2CCCCC2)nn(-c2ccc(Cl)cc2Cl)c1-c1ccc(-c2nnn(C)n2)cc1 [Compound 2-3] |  | 6 | 86.2 |  |  | 517 |
| COCc1c(C(=O)NC2CCCCC2)nn(-c2ccc(Cl)cc2Cl)c1-c1ccc(I)cc1 [Compound 1-22] |  | 15 | 45 |  |  | 675 |
| Cc1c(C=CC23CC4CC(CC(C4)C2)C3)nn(-c2ccc(Cl)cc2Cl)c1-c1ccc(Br)cc1 [Compound 1-25] |  | 17700 |  | 4.4 |  | 4010 |
| Cc1c(NC(=O)NC23CC4CC(CC(C4)C2)C3)nn(-c2ccc(Cl)cc2Cl)c1-c1ccc(Br)cc1 [Compound 3-12] |  | 259 | 2.9 |  |  | 756 |
| COCc1c(C(=O)NC2CCCCC2)nn(-c2ccc(Cl)cc2Cl)c1-c1ccc(-c2ccsc2)cc1 [Compound 1-17] |  | 241 | 4.0 |  |  | 968 |
| Cc1c(NC(=O)C2CCCCC2)nn(-c2ccc(Cl)cc2Cl)c1-c1ccc(Br)cc1 [Compound 3-14] | 27100 nM | 4230 | 6.4 |  |  |  |
| CN(C)CCOCc1c(C(=O)NC2CCCCC2)nn(-c2ccc(Cl)cc2Cl)c1-c1ccc(Br)cc1 [Compound 1-16] |  | 24 | 5.8 |  |  | 140 |
| Cc1c(C(=O)NN2CCCCC2)nn(-c2ccc(Cl)cc2Cl)c1-c1ccc(-c2cccnc2)cc1 [Compound 1-4] |  | 11.2 | 118 |  |  | 1330 |
| Cc1c(NC(=O)NC2CCCCC2)nn(-c2ccc(Cl)cc2Cl)c1-c1ccc(Br)cc1 [Compound 3-8] |  | 6.8 | 635.2 |  |  | 4320 |
